Experimental findings from PMC2720784 (Biochemistry, 2009) are described below.

One assay has as its target T1, R343V hNCRD (Homo sapiens, UniProt P35247, R363V).
T1 sequence (P35247 223-375 R363V limits assumed): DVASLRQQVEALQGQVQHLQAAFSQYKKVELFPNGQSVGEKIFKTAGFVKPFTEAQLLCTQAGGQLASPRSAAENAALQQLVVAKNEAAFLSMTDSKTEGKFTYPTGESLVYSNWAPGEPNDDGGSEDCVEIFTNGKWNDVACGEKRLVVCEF
The assay can be described thus: Mannan competition assay, R343V. The class given is binding. As to conditions: for change in affinity of R343V relative to wild-type: competition assays.

A further assay has as its target T2, R343A hNCRD (Homo sapiens, UniProt P35247, R363A).
T2 sequence (P35247 223-375 R363A limits assumed): T1 sequence (P35247 223-375 R363V limits assumed) with V141A
The assay can be described thus: Mannan competition assay, R343A. Conditions: read-out: I50 for inhibition of binding to mannan, one experiment.

Assay [1] relates to Phil82 IAV. The class given is binding, influenza A virus.
Assay [2] concerns Phil82 IAV. The class given is cell-based, influenza A virus. As to conditions: n=5.
The subject of assay [3] is Phil82 IAV. It is filed as cell-based, influenza A virus.

Where a chain is given by its changes, count along the chain named. Where only a bound is given, the exact number is not on record here.

As for `OC[C@H]1OC(O)[C@@H](O)[C@@H](O)[C@@H]1O` (stereo partly drawn) [D-mannose], on R343V hNCRD, the “change in affinity of R343V relative to wild-type” value was “no significant increase in affinity”.
On the same count and under the same terms, to `CO[C@H]1O[C@H](CO[C@H]2O[C@H](CO)[C@@H](O)[C@H](O)[C@@H]2O)[C@@H](O)[C@H](O[C@H]2O[C@H](CO)[C@@H](O)[C@H](O)[C@@H]2O)[C@@H]1O` [TM core, methyl 3,6-Di-O-(α-D-mannopyranosyl)-α-D-mannopyranoside] belongs “no significant increase in affinity”.
For `OC[C@H]1O[C@H](O[C@@H]2C(O)O[C@H](CO)[C@@H](O)[C@@H]2O)[C@@H](O)[C@@H](O)[C@@H]1O` (stereo partly drawn) [alpha1–2 DM, alpha1–2 linked dimannose], the “increase in affinity as compared to wild-type” value at R343V hNCRD (R343V vs wild-type hNCRD) is 7 fold. Further, the “change in affinity of R343V relative to wild-type” value on R343V hNCRD is given as “greatly enhanced binding”. In addition, the IC50 on R343V hNCRD (read-out: I50 for inhibition of binding to mannan, R343V, n=5) was found to be 210 ± 60 µM; at R343A hNCRD, 362 µM.
Consider `OC[C@H]1O[C@H](O[C@H]2[C@H](O)[C@@H](CO)OC(O)[C@H]2O)[C@@H](O)[C@@H](O)[C@@H]1O` (stereo partly drawn) [α1–3 dimannose], for which the “change in affinity of R343V relative to wild-type” value on R343V hNCRD was “no significant increase in affinity”.
On the same count and under the same terms, to `OC[C@H]1O[C@H](OC[C@H]2OC(O)[C@@H](O)[C@@H](O)[C@@H]2O)[C@@H](O)[C@@H](O)[C@@H]1O` (stereo partly drawn) [α1–6 dimannose] belongs “no significant increase in affinity”.
As for “hNCRD Wild type: N-terminally tagged trimeric neck+carbohydrate recognition domain fusion protein of human SP-D, wild type”, the “binding to IAV, solid phase binding assay” value in the assay on Phil82 IAV [1] was “no measurable binding”. The “HA Inhibitory Concentration” value with Phil82 IAV [2] is above 50 µg/mL. Further, the “viral neutralizing activity” value in the assay with Phil82 IAV [3] is listed as “lacked”.
